Measured values taken from patent US12653796B2, “Compounds for use (in particular RIPA-56) in the prevention and/or treatment of non-alcoholic fatty liver disease” (SORBONNE UNIVERSITE, priority 2019, dated 2026).

Test system: HFD-fed mice
Test: RIPA-56 feeding experiment in HFD-fed mice (NASH/steatosis model)
Type: in vivo, C57BL/6J mice
Protocol: FIG. 2. RIPA-56 treatment improves liver inflammation and fibrosis in HFD-fed mice. Six-week-old male C57BL/6J mice (n=5 per group) were fed either with normal control diet (NCD) or high-fat diet (HFD) supplemented or not with RIPA-56, according to prophylactic (“Pro”) or curative (“Cur”) designs for 16 weeks, the time necessary for an inflammatory and fibrotic response to develop. Differences between mice were determined by analysis of variance (ANOVA) with Bonferroni's multiple comparison. (A) Schematic representation of the experimental design; (B) Immunoblot analyses of whole liver protein extracts from mice fed NCD (1 to 3), HFD (4 to 6), HFD with RIPA-56 “Pro” (7 to 9), or HFD with RIPA-56 “Cur” (10 to 12) using antibodies against RIPK1, MLKL, RIPK3 and GAPDH as loading control; (C) Serum analysis of ALT; (D) Immuno-histochemical analysis of F4/80 on representative liver tissue sections from mice of each group; (E) Quantitative analysis of F4/80^+ foci using ImageJ software, 10 pictures per mouse were quantified; (F) F4/80, Mcp-1 and Tnf mRNA levels were assessed by RT-qPCR. (G) Representative Sirius Red staining of liver tissue section from mice of each group; (H) Quantification of light polarized Sirius Red pictures, 10 pictures per mouse were analyzed; (I) Collal mRNA levels were assessed by RT-qPCR. All data are expressed as mean±SEM; *p<0.05; **p<0.01; ***p<0.001. Scale bars indicate 50 μm.
FIG. 5. RIPA-56 treatment improves HFD-induced obesity and steatosis in mice. Six-week-old male C57BL/6J mice (n=5 per group) were fed either NCD or HFD supplemented or not with RIPA-56 for 16 weeks, as depicted in FIG. 2A, to analyze the metabolic status of the mice. (A) Body weight gain in mice of the 4 groups. No significant change in (B) food intake, (C) spontaneous locomotor activity, or (D) respiratory exchange ratio (RER) in mice Of the 4 groups; (E) Whole energy expenditure was evaluated during daylight and night in mice of the 4 groups; (F) Representative H&E staining of liver tissue sections from mice of the 4 groups. Scale bars, 50 μm; (G) Steatosis score of liver tissue sections was evaluated blinded; (H) Intrahepatic triglyceride contents were measured in two liver samples per mouse. Results are shown as mean±SEM; *p<0.05; **p<0.01; ***p<0.001.
FIG. 6. Fat and lean mass in prophylactically- and curatively-treated mice compared with control mice under HFD. (A) Body fat mass and relative body fat content, and (B) lean mass and relative lean content were evaluated in HFD-fed mice using MRI analysis. All results are shown as mean±SEM; n=5 per group; *p<0.05. Differences between groups were determined by one-way ANOVA with Bonferroni's multiple comparison.
Six-week-old male C57BL/6J mice (Charles River Laboratories, Ecully, France) were fed a high-fat diet (HFD—45 kcal % fat) or a normal chow diet (NCD) (Ssniff spezialdiäten GmbH, Soest, Germany) for 16 weeks (the time necessary for an inflammatory and fibrotic response to develop).
RIPA-56 (MedChemExpress, Stockholm, Sweden) was incorporated in diet by Ssniff spezialdiäten GmbH (Soest, Germany) according to a standardized protocol. Ssniff company is an approved manufacturer of laboratory animal diets and has the license to produce medicated feed for laboratory animals in accordance with Directive 2001/82/EC. Before the end of the feeding period, mice were single housed for one week in metabolic cages to measure food intake, respiratory exchange ratio (RER), energy expenditure and spontaneous locomotor activity using a LabMaster indirect calorimetry system (TSE Systems GmbH, Bad Homburg, Germany). Mice were sacrificed under anesthesia and blood was collected via intracardiac puncture procedure. Tissue samples were either directly snap-freezed in liquid nitrogen for molecular analysis or fixed in 4% PFA and embedded in paraffin for histological analysis. […]

CCC(C)(C)C(=O)N(O)Cc1ccccc1 [RIPA-56, N-Benzyl-N-hydroxy-2,2-dimethylbutanamide]
MLKL and RIPK3 expression in liver (Western blot) (HFD 16 weeks, 300 mg/kg in diet, both prophylactic and curative treatments): repressed | hepatic fat content by blinded histological analyses (HFD-fed mice): marked decrease | hepatic triglyceride content, reduction (HFD-fed mice): 30-40% | increments in liver mRNA levels of Ccl20, Nlrp3 or Il-1b (RIPA-56-treated HFD-fed mice): abrogated or reduced | expression of RIPK1 in liver (Western blot and RT-qPCR): not impacted | steatosis (both curative and prophylactic settings): largely reduced | increase of serum alanine aminotransferase (ALT) (both prophylactic and curative settings): abolished | macrophage infiltration (hepatic F4/80 immunostaining) (both prophylactic and curative treatments): suppressed | liver mRNA levels of F4/80 and Mcp-1, difference HFD vs NCD (both regimens): disappeared | mRNA levels of MLKL and RIPK3 in liver (both regimens, RT-qPCR): decreased | body weight gain, fat- or lean-mass vs untreated HFD-fed mice (curative setting, start after 12 weeks of HFD): did not result in differences | Collagen-1a1 (Col1a1) mRNA levels in liver (curative treatment): reduced | TNFα expression in liver (curative treatment): markedly reduced | intensity of histologic features of NASH (curative treatment): largely attenuates | pericellular fibrosis (Sirius red staining) (prophylactic and curative treatments): virtually disappeared | MLKL and RIPK3 expression in liver (Western blot) (prophylactic setting): almost complete inhibition | body weight gain, lower than untreated HFD-fed mice (prophylactic setting): ~12% | fat and relative fat mass (MRI) (prophylactic setting): significant decrease | lean and relative lean body mass (MRI) (prophylactic setting): trend towards increased | Collagen-1a1 (Col1a1) mRNA levels in liver (prophylactic treatment): no longer increased | histologic features of NASH (prophylactic treatment): prevents | increase of TNFα expression in liver (prophylactic treatment): not after RIPA-56 prophylactic treatment | energy expenditure (indirect calorimetry) (prophylactic treatment vs curative or no treatment): increased
